Results reported in patent US9815851B2, “Pyrrolo carboxamides as modulators of orphan nuclear receptor RAR-related orphan receptor-gamma (RORγ, NR1F3) activity and for the treatment of chronic inflammatory and autoimmune diseases” (PHENEX PHARMACEUTICALS AG, priority 2011, dated 2017).
Read-outs that look alike come from different tables or passages of the source.

Columns and labels:
[1] = biological target: T1, RORγ ligand binding domain (LBD) (Homo sapiens, UniProt P51449); assay: TR-FRET Activity Assay (ligand sensing, RORγ-LBD / coactivator peptide interaction, LANCE); format: biochemical
T1 construct: made in house; host or cells: E. coli BL-21 (BL3), vector pDEST15
T1 sequence (P51449 269-508 limits assumed): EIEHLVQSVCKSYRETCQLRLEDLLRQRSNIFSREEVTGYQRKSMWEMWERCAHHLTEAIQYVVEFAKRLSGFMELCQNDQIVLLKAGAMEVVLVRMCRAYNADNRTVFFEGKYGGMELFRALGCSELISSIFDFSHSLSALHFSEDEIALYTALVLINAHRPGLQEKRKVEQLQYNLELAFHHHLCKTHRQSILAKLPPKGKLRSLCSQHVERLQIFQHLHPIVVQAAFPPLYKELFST

RORγ = biological target: T2, RORγ (UniProt P51449); assay: RORγ Gal4 Reporter Gene Assay in 293T cells (firefly and renilla luciferase); format: cell-based, human
T2 sequence (P51449 1-518): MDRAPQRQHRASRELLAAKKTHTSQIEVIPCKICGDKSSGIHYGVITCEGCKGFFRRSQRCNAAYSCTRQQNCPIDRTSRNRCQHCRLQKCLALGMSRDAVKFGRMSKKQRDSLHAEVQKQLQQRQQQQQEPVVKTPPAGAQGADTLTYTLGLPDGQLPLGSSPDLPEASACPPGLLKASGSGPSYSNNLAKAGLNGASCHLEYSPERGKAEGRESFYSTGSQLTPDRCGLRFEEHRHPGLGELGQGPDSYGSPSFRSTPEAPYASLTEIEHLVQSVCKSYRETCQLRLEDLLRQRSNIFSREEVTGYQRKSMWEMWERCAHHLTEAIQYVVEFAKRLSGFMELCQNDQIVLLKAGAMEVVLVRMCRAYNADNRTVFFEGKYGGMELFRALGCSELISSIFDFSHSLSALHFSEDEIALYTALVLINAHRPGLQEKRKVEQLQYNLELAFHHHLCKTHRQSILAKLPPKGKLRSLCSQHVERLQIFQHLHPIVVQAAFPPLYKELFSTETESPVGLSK

[2] = first value of the cell FRET/FF/REN, TR-FRET activity assay, read-out: pIC50 (FRET) (converted)
[3] = second value of the cell, Gal4 reporter gene assay in 293T cells, firefly luciferase
[4] = third value of the cell, Gal4 reporter gene assay in 293T cells, renilla normalised luciferase

| SMILES | IC50 [1, 2] [nM] | pIC50 (FF) (RORγ; [3]) | pIC50 (REN) (RORγ; [4]) | IC50 [1] [nM] | pIC50 (FF) (RORγ) | pIC50 (REN) (RORγ) |
| --- | --- | --- | --- | --- | --- | --- |
| Cc1c(C(=O)NC2CCOCC2)cc(-c2ccc(S(=O)(=O)NC(C)(C)C)c3sccc23)n1CC1CCCCC1 [17/183] | 200 | 7.9 | 8.1 |  |  |  |
| Cc1c(C(=O)NC2CCOCC2)cc(-c2ccc(S(=O)(=O)NC(=O)C(C)(C)C)c(C(F)(F)F)c2)n1CC1CCCCC1 [17/258] | 7940 | < 4.7 | < 4.7 |  |  |  |
| CCN(C(C)(C)C)S(=O)(=O)c1ccc(-c2cc(C(=O)NC3COC3)c(C)n2CC2CCCCC2)cc1C(C)(C)C [9/6] | 251 | 7.7 | 7.8 |  |  |  |
| Cc1c(C(=O)NCCC(C)(C)C(=O)O)cc(-c2ccc(-c3ccnn3C(C)C)c(C(C)(C)C)c2)n1CC1CCCCC1 [26/6] | 398 | 7.7 | 7.9 |  |  |  |
| Cc1c(C(=O)N[C@H]2C[C@H](C(=O)O)C2)cc(-c2cc(C(C)(C)C)c3c(c2)C2(CCO3)CC2)n1CC1CCCCC1 [17/55] | 2000 | 7.5 | 7.6 |  |  |  |
| Cc1c(C(=O)NC2COC2)cc(-c2cc(C(C)(C)C)cc(C(F)(F)F)c2)n1CC1CCCCC1 [1/78] |  |  |  | 316 | 6.5/7.1/7.1 | 6.5/7.1/7.1 |
| Cc1c(C(=O)N[C@H]2C[C@H](C(=O)O)C2)cc(-c2cc(OCC(C)(C)C)nc(C(C)(C)C)c2)n1CC1CCCCC1 [17/195] | 631 | 7.6 | 7.6 |  |  |  |
| Cc1c(C(=O)NCCCCCO)cc(-c2cc(C(C)(C)C)c3c(c2)C2(CCO3)CC2)n1CC1CCCCC1 [1/40] |  |  |  | 251 | 6.6/7.5/7.6 | 6.6/7.5/7.6 |
| COC(C)(C)c1cc(-c2c(Cl)c(C(=O)N[C@H]3C[C@H](C(=O)O)C3)c(C)n2CC2CCCCC2)cc(C2(C)CC2)c1 [29/2] | 2510 | 7.3 | 7.1 |  |  |  |
| Cc1c(C(=O)NC2CCOCC2)cc(-c2ccc(S(=O)(=O)NC(C)(C)C)c(Br)c2)n1CC1CCCCC1 [17/157] | 398 | 7.0 | 7.1 |  |  |  |
| CCc1cc(-c2cc(C(N)=O)c(C)n2CC2CCCCC2)cc2c1OCC2(C)C [1/50] | 1580 | 6.0 | 6.1 |  |  |  |
| CC(C)(C)NS(=O)(=O)c1ccc(-c2cc(C(=O)NCCC(C)(C)C(=O)O)c(F)n2CC2CCCCC2)cc1C(F)(F)F [20/6] | 501 | 6.9 | 6.9 |  |  |  |
| Cc1c(C(=O)NC2CCOCC2)cc(-c2ccc(S(=O)(=O)NC(C)(C)C)c3ccccc23)n1CC1CCCCC1 [17/236] | 631 | 8.1 | 8.2 |  |  |  |
| Cc1c(C(=O)NCCc2nn[nH]n2)cc(-c2ccc(S(=O)(=O)NC(C)(C)C)c(C(F)(F)F)c2)n1CC1CCCCC1 [17/335] | 316 | 5.5 | 5.6 |  |  |  |
| CCNC(=O)NC(C)(C)CNC(=O)c1cc(-c2cc(C(C)(C)C)c3c(c2)C2(CCO3)CC2)n(CC2CCCCC2)c1C [17/120] | 2510 | 6.1 | 6.0 |  |  |  |
| Cc1c(C(=O)NC2CCOCC2)cc(-c2cc(F)c(S(=O)(=O)NC(C)(C)C)c(C(F)(F)F)c2)n1CC1CCCCC1 [17/229] | 631 | 7.2 | 7.3 |  |  |  |
| Cc1c(C(=O)NC2CCOCC2)cc(-c2ccc(NS(=O)(=O)C(C)(C)C)c(C(F)(F)F)c2)n1CC1CCCCC1 [17/247] | 1260 | 6.9 | 7.0 |  |  |  |
| Cc1c(C(=O)NC2CNC(=O)C23CCOCC3)cc(-c2ccc(S(=O)(=O)NC(C)(C)C)c(C(F)(F)F)c2)n1CC1CCCCC1 (stereo not drawn) [17/295] | 1000 | 6.6 | 6.5 |  |  |  |
| Cc1c(C(=O)NCC2CCS(=O)(=O)CC2)cc(-c2cc(C(C)(C)O)cc(C3(C)CC3)c2)n1CC1CCCCC1 [17/320] |  |  |  | 1580 | 5.8/7.3/7.3 | 5.8/7.3/7.3 |
| Cc1c(C(=O)NC2(CO)CC2)cc(-c2cc(C(C)(C)C)cc(C(C)(C)C)c2)n1CC1CCCCC1 [1/58] |  |  |  | 631 | 6.2/6.2/6.2 | 6.2/6.2/6.2 |

| SMILES | IC50 [1, 2] [nM] | pIC50 (FF) (RORγ; [3]) | pIC50 (REN) (RORγ; [4]) | IC50 [1] [nM] | pIC50 (FF) (RORγ) | pIC50 (REN) (RORγ) |
| --- | --- | --- | --- | --- | --- | --- |
| Cc1c(C(=O)NC2COC2)cc(-c2cc(C(C)(C)C)cc(C(C)(C)C)c2)n1S(=O)(=O)N1CCCC(C)C1 (stereo not drawn) [7/2] |  |  |  | 251 | 6.6/7.0/7.0 | 6.6/7.0/7.0 |
| Cc1c(C(=O)NC2CCOCC2)cc(-c2cc(C(=O)NC(C)(C)C)cc(C(C)(C)O)c2)n1CC1CCCCC1 [17/322] | 3980 | 5.9 | 6.0 |  |  |  |
| Cc1c(C(=O)NCC(C)(C)c2noc(=O)[nH]2)cc(-c2cc(C(C)(C)O)cc(C3(C)CC3)c2)n1CC1CCCCC1 [17/310] | 1000 | 7.4 | 7.6 |  |  |  |
| Cc1c(C(=O)NC2COC2)cc(-c2cc(C(C)(C)C)nc(C(F)(F)F)c2)n1CC1CCCCC1 [9/15] |  |  |  | 316 | 6.5/6.5/6.5 | 6.5/6.5/6.5 |
| Cc1c(C(=O)NCC(C)(C)C(=O)O)cc(-c2ccc(S(=O)(=O)NC(C)(C)C)c(C(C)(C)O)c2)n1CC1CCCCC1 [17/327] | 794 | 6.8 | 6.9 |  |  |  |
| Cc1c(C(=O)NC2CCOCC2)cc(-c2ccc(S(N)(=O)=O)c(C(F)(F)F)c2)n1CC1CCCCC1 [Example 19, 1-(Cyclohexylmethyl)-2-methyl-5-(4-sulfamoyl-3-(trifluoromethyl)phenyl)-N-(tetrahydro-2H-pyran-4-yl)-1H-pyrrole-3-carboxamide] | 12600 | 6.6 | 6.4 |  |  |  |
| Cc1c(C(=O)NC[C@H](C)O)cc(-c2cc(C(C)(C)C)cc(C(C)(C)C)c2)n1CC1CCCCC1 [1/60] | 1000 | 6.2 | 6.2 |  |  |  |
| Cc1c(C(=O)NCC(C)(C)O)cc(-c2cc(C(C)(C)C)cc(C(C)(C)C)c2OC(F)F)n1CC1CCCCC1 [17/191] |  |  |  | 1260 | 5.9/7.0/6.9 | 5.9/7.0/6.9 |
| CC(C)(C)NS(=O)(=O)c1ccc(-c2cc(C(=O)NC3CCOCC3)cn2CC2CCCCC2)cc1C(C)(C)C [17/116] |  | 7.3 | 7.3 | 631 |  |  |
| CC(C)(C)NS(=O)(=O)c1ccc(-c2cc(C(=O)N[C@H]3C[C@H](C(=O)O)C3)c(F)n2CC2CCCCC2)c2ccccc12 [20/8] | 1000 | 7.0 | 7.0 |  |  |  |
| Cc1c(C(=O)NCC2CCS(=O)(=O)CC2)cc(-c2ccc(S(=O)(=O)NC(C)(C)C)c3ccccc23)n1CC1CCCCC1 [17/265] | 316 | 7.9 | 8.0 |  |  |  |
| Cc1c(C(=O)NCC(C)(C)C(=O)N2CCOCC2)cc(-c2cc(C(C)(C)C)c3c(c2)C2(CCO3)CC2)n1CC1CCCCC1 [Example 11, 5(8-(tert-Butyl)spiro[chroman-4,1′-cyclopropan]-6-yl)-1-(cyclohexylmethyl)-N-(2,2-dimethyl-3-morpholino-3-oxopropyl)-2-methyl-1H-pyrrole-3-carboxamide] | 251 | 6.5 | 6.5 |  |  |  |
| Cc1c(C(=O)NCCCS(C)(=O)=O)cc(-c2cc(C(C)(C)C)c3c(c2)C2(CCO3)CC2)n1CC1CCCCC1 [17/80] | 501 | 6.9 | 7.0 |  |  |  |
| CCC(C)(C)NS(=O)(=O)c1ccc(-c2cc(C(=O)NC3COC3)c(C)n2CC2CCCCC2)cc1C(C)(C)C [9/7] | 501 | 7.5 | 7.5 |  |  |  |
| Cc1c(C(=O)NCC2CCOCC2)cc(-c2cc(C(C)(C)C)cc(C3(C)CC3)c2)n1CC1CCCCC1 [17/63] |  |  |  | 200 | 6.7/7.7/7.6 | 6.7/7.7/7.6 |
| Cc1c(C(=O)N[C@H]2C[C@](C)(C(=O)O)C2)cc(-c2ccc(S(=O)(=O)NC(C)(C)C)c(C(F)F)c2)n1CC1CCCCC1 [17/170] | 316 | 6.8 | 7.0 |  |  |  |
| Cc1c(C(=O)NC2COC2)cc(-c2cc(OCC(C)C)nc(C(C)(C)C)c2)n1CC1CCCCC1 [1/121] |  |  |  | 126 | 6.9/7.0/7.2 | 6.9/7.0/7.2 |
| Cc1c(C(=O)NC[C@@H](C)O)cc(-c2cc(C(C)(C)C)cc(C(C)(C)C)c2)n1CC1CCCCC1 [1/59] | 631 | 6.3 | 6.3 |  |  |  |
| Cc1c(C(=O)NCC(C)(C)C(=O)NCCC(=O)O)cc(-c2cc(C(C)(C)C)c3c(c2)C2(CCO3)CC2)n1CC1CCCCC1 [11/3] | 1000 | 6.5 | 6.5 |  |  |  |
| Cc1c(C(=O)NCC2(C(=O)O)CCOCC2)cc(-c2ccc(S(=O)(=O)NC(C)(C)C)c(C(F)(F)F)c2)n1CC1CCCCC1 [17/201] | 794 | 5.7 | 5.7 |  |  |  |
